Results: ChEMBL document CHEMBL1129395, “Targeting the minor groove of DNA: crystal structures of two complexes between furan derivatives of berenil and the DNA dodecamer d(CGCGAATTCGCG)2” (1996)

What was measured:
Format in all cases: functional
Cryptosporidium parvum = experiment: percentage of controls is reported as the counted oocysts obtained from alimentary tract tissues using a blinded protocol on Cryptosporidium parvum at dose of 62 umol/kg/day
Pneumocystis carinii [1] = experiment: Percentage of control was reported as the counted cysts in lung tissue using blinded protocol of saline-treated controls on Pneumocystis carinii at dose of 22.1 umol/kg/day
Pneumocystis carinii [2] = experiment: in vivo activity against Pneumocystis carinii at dose of 22.1 umol/kg/day
[3] = In vitro increase in thermal melting of oligomer d(CGCGAATTCGCG)2

With `N=C(N)c1ccc(OCCCCCOc2ccc(C(=N)N)cc2)cc1` [PENTAMIDINE] the Of control (Cryptosporidium parvum) was 20.8%, the Of control (Pneumocystis carinii [1]) was 1.47% and the Toxicity (Pneumocystis carinii [2]) was 2. The ΔTm [3] was 4.8.
